According to publication PMC8235151, “Glycoside Hydrolases and Non-Enzymatic Glycation Inhibitory Potential of Viburnum opulus L. Fruit—In Vitro Studies” (Antioxidants, 2021):
Converted amounts (≈) assume the structure as drawn. “Also recorded” adds a separate entry of the source.

Key:
[1] = target: rat intestinal α-glucosidase; test: α-glucosidase inhibition assay (glucose release from disaccharide); type: biochemical
Description: The assessment of the α-glucosidase activity was slightly modified according to […] et al. and Gao et al.. […] Enzyme isolation was performed in an ultrasonic cleaner (for 30 sec) in an ice bath, then 30 sec without ultrasonic. This step was repeated 12 times. After that, the solution was centrifuged at 4 °C (3000 rpm, 30 min). 50 μL of diluted V. opulus samples were mixed with 50 μL of enzyme supernatant (diluted 2 times for reaction with maltose). After incubation at 37 °C for 10 min, 50 μL of substrate (0.1 M maltose or 0.5 M sucrose solution prepared in 0.1 M phosphate buffer, pH 6.9) was added and incubated in a 96-well microplate at 37 °C for 20 min for maltose and 60 min for sucrose. The reaction was stopped by adding 150 μL of 2 M Tris-HCl buffer (pH 7.0). The concentration of glucose released from the reaction mixture was determined by the commercial glucose test (BIOMAXIMA SA, Lublin, Poland).

[2] = target: T1, α-amylase from porcine pancreas (Sus scrofa, UniProt P00690); test: Mode of α-amylase inhibition (Lineweaver-Burk); type: biochemical; settings: for type of inhibition against α-amylase: regardless of the type of starch
T1 construct: α-amylase from porcine pancreas type VI-B; purchased Sigma Aldrich (Steinheim, Germany) type VI-B (catalogue number not given); host or cells: porcine pancreas
T1 sequence (P00690 16-511): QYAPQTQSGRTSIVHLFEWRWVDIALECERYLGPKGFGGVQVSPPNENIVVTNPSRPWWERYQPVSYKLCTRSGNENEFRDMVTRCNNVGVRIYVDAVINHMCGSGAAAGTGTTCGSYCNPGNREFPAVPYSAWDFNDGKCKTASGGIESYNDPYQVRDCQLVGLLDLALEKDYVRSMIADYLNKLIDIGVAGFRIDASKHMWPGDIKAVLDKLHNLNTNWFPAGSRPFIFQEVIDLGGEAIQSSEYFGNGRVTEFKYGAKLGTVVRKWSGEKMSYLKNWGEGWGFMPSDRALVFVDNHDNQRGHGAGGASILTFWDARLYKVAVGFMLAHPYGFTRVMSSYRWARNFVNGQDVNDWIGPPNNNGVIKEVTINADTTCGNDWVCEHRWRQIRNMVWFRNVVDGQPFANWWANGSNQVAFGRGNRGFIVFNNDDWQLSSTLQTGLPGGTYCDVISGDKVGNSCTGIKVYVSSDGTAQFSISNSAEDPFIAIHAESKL
Description: (§1) The α-amylase inhibition assay was based on a previously-described spectrophotometric method with some modifications. All reagents were prepared with 0.1 M phosphate buffer containing 6 mM CaCl2 (pH 6.9). Briefly, 20 µL of diluted V. opulus samples and 40 µL of potato starch (0.83 g/L) or starch from rice (1 g/L) solution were mixed with 20 µL of α-amylase (0.1 mg/mL for potato starch and 0.2 mg/mL for starch from rice) in a 96-well plate. […] The absorbance was read at 600 nm using a microplate reader (Synergy2, Biotek Instruments Inc., Winooski, VT, USA). […] Each sample was measured in triplicate.
The enzymes activities without and with tested samples were studied using the methods described in Section 2.5 and Section 2.6. A double reciprocal graph (1/v versus 1/S, where “v” is the reaction rate and “S” the concentration of the substrate), was plotted. All samples were tested at three different doses using six concentrations of substrate.

[3] = test system: rat intestinal α-glucosidase; test: Mode of α-glucosidase inhibition (Lineweaver-Burk); type: biochemical; settings: for type of inhibition against α-glucosidase: regardless of the type of disaccharide
Description: The assessment of the α-glucosidase activity was slightly modified according to […] et al. and Gao et al.. […] Enzyme isolation was performed in an ultrasonic cleaner (for 30 sec) in an ice bath, then 30 sec without ultrasonic. […] After that, the solution was centrifuged at 4 °C (3000 rpm, 30 min). 50 μL of diluted V. opulus samples were mixed with 50 μL of enzyme supernatant (diluted 2 times for reaction with maltose). After incubation at 37 °C for 10 min, 50 μL of substrate (0.1 M maltose or 0.5 M sucrose solution prepared in 0.1 M phosphate buffer, pH 6.9) was added and incubated in a 96-well microplate at 37 °C for 20 min for maltose and 60 min for sucrose. The reaction was stopped by adding 150 μL of 2 M Tris-HCl buffer (pH 7.0). The concentration of glucose released from the reaction mixture was determined by the commercial glucose test (BIOMAXIMA SA, Lublin, Poland). […] A double reciprocal graph (1/v versus 1/S, where “v” is the reaction rate and “S” the concentration of the substrate), was plotted. All samples were tested at three different doses using six concentrations of substrate.

[4] = test system: AGE formation (BSA-glucose model); test: Protein glycation inhibition assay, BSA-glucose model; type: biochemical, bovine; settings: 37 °C, 13 days
Description: The bovine serum albumin (BSA) and glucose/fructose assay was carried according to the method of Błaszczak et al. [45] with some modifications. We prepared 25 mL of the test solution containing D-glucose or D-fructose (1.0 M), BSA (10 mg/mL) and sodium azide (0.1 mg/mL) in the phosphate buffer (0.1 M, pH 7.4). The test solution (1 mL) was incubated in the dark at 37 °C for 13 days for glucose and for 6 days for fructose with or without 0.5 mL of tested V. opulus samples. […] Next, the formation of AGE was evaluated based on fluorescence intensity at λ = 330 nm (excitation wave) and λ = 460 nm (emission wave). Fluorescence intensity was measured in 96-well plates (black, OptiPlate-96 F, PerkinElmer, UK) in a microplate reader (Synergy2, BioTek Instruments Inc., Winooski, VT, USA).

[5] = test system: AGE formation (BSA-fructose model); test: Protein glycation inhibition assay, BSA-fructose model; type: biochemical, bovine; settings: 37 °C, 6 days
Description: The bovine serum albumin (BSA) and glucose/fructose assay was carried according to the method of Błaszczak et al. with some modifications. We prepared 25 mL of the test solution containing D-glucose or D-fructose (1.0 M), BSA (10 mg/mL) and sodium azide (0.1 mg/mL) in the phosphate buffer (0.1 M, pH 7.4). The test solution (1 mL) was incubated in the dark at 37 °C for 13 days for glucose and for 6 days for fructose with or without 0.5 mL of tested V. opulus samples. […] Next, the formation of AGE was evaluated based on fluorescence intensity at λ = 330 nm (excitation wave) and λ = 460 nm (emission wave). Fluorescence intensity was measured in 96-well plates (black, OptiPlate-96 F, PerkinElmer, UK) in a microplate reader (Synergy2, BioTek Instruments Inc., Winooski, VT, USA).

[6] = target: sucrase from rat small intestine; design: method as in PMID 16787002; settings: cited from earlier work
[7] = target: α-amylase porcine pancreas; design: method as in PMID 16787002; settings: cited from earlier work
[8] = target: T2, α-amylase from porcine pancreas type VI-B (Sus scrofa, UniProt P00690); test: α-amylase inhibition assay (starch-iodine, spectrophotometric); type: biochemical
T2 construct: α-amylase from porcine pancreas type VI-B; purchased Sigma Aldrich (Steinheim, Germany) type VI-B (catalogue number not given); host or cells: porcine pancreas
T2 sequence (P00690 16-511): T1 sequence (P00690 16-511)
Description: as §1

α-amylase = target: T3, α-amylase (Sus scrofa, UniProt P00690); design: method as in doi:10.3390/pr8111388; settings: cited from earlier work
T3 construct: purchased Sigma Aldrich (Steinheim, Germany) type VI-B (catalogue number not given); host or cells: porcine pancreas
T3 sequence (P00690 16-511): T1 sequence (P00690 16-511)

[9] = target: maltase from rat small intestine; design: method as in PMID 16787002; settings: cited from earlier work
[10] = test system: porcine pancreatic α-amylase; settings: potato and maize starch; cited from earlier work

Row | Compound | IC50 for the inhibition of α-glucosidase ([1]; substrate maltose) | IC50 for the inhibition of α-glucosidase ([1]; substrate sucrose) | Inhibition Type ([2]; potato starch) | type of inhibition against α-amylase [2] | Inhibition Type ([2]; rice starch) | Inhibition Type ([3]; maltose) | Ki ([3]; maltose) | type of inhibition against α-glucosidase [3] | Inhibition Type ([3]; sucrose) | Ki ([3]; sucrose) | IC50 for the inhibition of AGE formation [5] | other results
1 | C[C@H]1O[C@H](O[C@H]2[C@H](O)[C@@H](O)[C@@H](O[C@H]3[C@H](O)[C@@H](O)C(O)O[C@@H]3CO)O[C@@H]2CO)[C@H](O)[C@@H](O)[C@@H]1N[C@H]1C=C(CO)[C@@H](O)[C@H](O)[C@H]1O (some centres unmarked) [Acarbose, acarbose] | 0.051 ± 0.001a µg/mL | 1.37 ± 0.04a µg/mL | uncompetitive | uncompetitive; also recorded: uncompetitively | uncompetitive | mixed | / 0.021 μg/mL | mixed type of inhibition (competitive and noncompetitive); also recorded: mixed mode of inhibition | mixed | / 1.52 μg/mL |  | 
2 | Cl.N=C(N)NN [Aminoguanidine, aminoguanidine hydrochloride] |  |  |  |  |  |  |  |  |  |  | 106.08 ± 3.17 µg·days/mL | IC50 for the inhibition of AGE formation [4]: 137.80 ± 3.44a µg/mL
3 | O=C(/C=C/c1ccc(O)c(O)c1)O[C@@H]1C[C@](O)(C(=O)O)C[C@@H](O)[C@H]1O [Chlorogenic acid] | 103.37 ± 5.29bc µg/mL | 99.81 ± 0.75ab µg/mL | competitive | competitive | competitive | noncompetitive | / 145.41 μg/mL | noncompetitive-type inhibition | noncompetitive | / 181.21 μg/mL | 58.87 ± 0.93c µg/mL | IC50 against sucrase [6]: 500 µg/mL (≈ 1.41 mM); IC50 on α-amylase [7]: 13170 µg/mL (≈ 37.2 mM); lower inhibitory activity against α-glucosidase than PEAF ([1]; maltose): 1.7 fold; IC50 towards α-amylase higher than IC50 for CE, on average ([8]; average of both starches): 2.7 fold; IC50 towards α-amylase higher than IC50 for PE, on average ([8]; average of both starches): 14 fold; IC50 ([8]; substrate potato starch): 2.35 mM; IC50 ([8]; substrate starch from rice): 5.54 mM; Ki ([2]; potato starch): 3.46 mM; Ki ([2]; rice starch): 5.32 mM; lower inhibitory activity against α-amylase compared to acarbose (α-amylase): 5 fold; IC50 against maltase [9]: 8810 µg/mL (≈ 24.9 mM); type of inhibitory effect on α-amylase hydrolysis of starch [10]: mixed type inhibitory effect
